Source: ChEMBL document CHEMBL4680133, “Novel nitroimidazole derivatives evaluated for their trypanocidal, cytotoxic, and genotoxic activities” (Eur J Med Chem, 2020)

Experiments:
Trypanosoma cruzi [1] = assay: Antitrypanosomal activity against bloodstream form of Trypanosoma cruzi Y trypomastigotes infected in African green monkey Vero cells assessed as increase in parasite lysis measured after 24 hrs by Neubauer chamber method; assay type: functional, organism-based
[2] = Selectivity index, ratio of GI50 for human HepG2 cells assessed as reduction in cell viability measured after 24 hrs by WST1 assay to IC50 for antitrypanosomal activity against Trypanosoma cruzi Y axenic amastigotes infected in African green monkey Vero cells; assay type: toxicity; details: read-out: Selectivity Index
[3] = Cytotoxicity against human HepG2 cells assessed as reduction in cell viability measured after 24 hrs by WST1 assay; assay type: cell-based
[4] = Selectivity index, ratio of GI50 for mouse RAW264.7 cells assessed as reduction in cell viability measured after 24 hrs by WST1 assay to IC50 for antitrypanosomal activity against Trypanosoma cruzi Y axenic amastigotes infected in African green monkey Vero cells; assay type: toxicity; details: read-out: Selectivity Index
[5] = Selectivity index, ratio of GI50 for mouse RAW264.7 cells assessed as reduction in cell viability measured after 24 hrs by WST1 assay to IC50 for antitrypanosomal activity against bloodstream form of Trypanosoma cruzi Y trypomastigotes infected in African green monkey Vero cells; assay type: toxicity; details: read-out: Selectivity Index
Trypanosoma cruzi [6] = assay: Antitrypanosomal activity against Trypanosoma cruzi Y axenic amastigotes infected in African green monkey Vero cells after 24 hrs by MTT assay; assay type: functional, organism-based
[7] = Cytotoxicity against mouse RAW264.7 cells assessed as reduction in cell viability measured after 24 hrs by WST1 assay; assay type: cell-based
[8] = Selectivity index, ratio of GI50 for human HepG2 cells assessed as reduction in cell viability measured after 24 hrs by WST1 assay to IC50 for antitrypanosomal activity against bloodstream form of Trypanosoma cruzi Y trypomastigotes infected in African green monkey Vero cells; assay type: toxicity; details: read-out: Selectivity Index
HepG2 [9] = assay: Genotoxicity in human HepG2 assessed as number of micronucleated cells at 100 ug/ml measured after 24 hrs by micronucleus test (reference value: 14 to 18); assay type: toxicity, cell-based; details: hepg2, 24 h, dose 100 µg/ml
HepG2 [10] = assay: Genotoxicity in human HepG2 assessed as mitotic index at 100 ug/ml measured after 24 hrs by micronucleus test (reference value: 61 to 108); assay type: toxicity, cell-based; details: hepg2, 24 h, dose 100 µg/ml
[11] = Genotoxicity in human HepG2 assessed as survival at 100 ug/ml measured after 24 hrs by micronucleus test (reference value: 100%); assay type: toxicity, cell-based; details: HepG2 cells, at 100 µg/mL, read-out: Survival

Compound | IC50 (Trypanosoma cruzi [1]) [µM] | selectivity ratio at 24 h [2] | GI50 at 24 h [3] [µM] | selectivity ratio at 24 h [4] | selectivity ratio at 24 h [5] | IC50 (Trypanosoma cruzi [6]) [µM] | GI50 at 24 h [7] [µM] | selectivity ratio at 24 h [8] | Activity (HepG2 [9]) | Activity_index (HepG2 [10]) | viability at 24 h, 100 ug/ml [11] [%]
Cn1cnc([N+](=O)[O-])c1-n1cc(-c2cccc(N)c2)nn1 | 41.2 |  |  |  |  |  |  |  |  |  | 
O=C(Cn1ccnc1[N+](=O)[O-])NCc1ccccc1 [BENZNIDAZOLE] | 8.8 | > 57 | > 500 | > 57 | > 56 | 8.7 | > 500 | > 56 |  |  | 
c1ccc2c(c1)cc1ccc3cccc4ccc2c1c34 [BENZO[DEF]CHRYSENE] |  |  |  |  |  |  |  |  | 31 | 57 | 99
